A word on the pIC50: it is −log10 of the IC50, conventionally taken in molar units.

The values below come from PMC12687421, “Characterisation of an allosteric site in PLCγ enzymes and implications for development of their specific inhibitors” (Biochemical Journal, 2025).

pIC50: −log10 of the molar value.

The subject of one assay is CD95–PLCγ1 interaction. More on the design: method as in PMID 30429604, PMID 31548507. The note with it: cited from earlier work.
The subject of a further assay is disease mouse model. Further details: method as in PMID 30429604, PMID 31548507. As to conditions: cited from earlier work.
For assay [1], the target named is T1, PLCγ1^S345F (Homo sapiens, UniProt P19174, S345F).
T1 construct: Avi-tag (N); His-tag (N); expressed in transfected cells
T1 sequence (P19174 1-1290 S345F): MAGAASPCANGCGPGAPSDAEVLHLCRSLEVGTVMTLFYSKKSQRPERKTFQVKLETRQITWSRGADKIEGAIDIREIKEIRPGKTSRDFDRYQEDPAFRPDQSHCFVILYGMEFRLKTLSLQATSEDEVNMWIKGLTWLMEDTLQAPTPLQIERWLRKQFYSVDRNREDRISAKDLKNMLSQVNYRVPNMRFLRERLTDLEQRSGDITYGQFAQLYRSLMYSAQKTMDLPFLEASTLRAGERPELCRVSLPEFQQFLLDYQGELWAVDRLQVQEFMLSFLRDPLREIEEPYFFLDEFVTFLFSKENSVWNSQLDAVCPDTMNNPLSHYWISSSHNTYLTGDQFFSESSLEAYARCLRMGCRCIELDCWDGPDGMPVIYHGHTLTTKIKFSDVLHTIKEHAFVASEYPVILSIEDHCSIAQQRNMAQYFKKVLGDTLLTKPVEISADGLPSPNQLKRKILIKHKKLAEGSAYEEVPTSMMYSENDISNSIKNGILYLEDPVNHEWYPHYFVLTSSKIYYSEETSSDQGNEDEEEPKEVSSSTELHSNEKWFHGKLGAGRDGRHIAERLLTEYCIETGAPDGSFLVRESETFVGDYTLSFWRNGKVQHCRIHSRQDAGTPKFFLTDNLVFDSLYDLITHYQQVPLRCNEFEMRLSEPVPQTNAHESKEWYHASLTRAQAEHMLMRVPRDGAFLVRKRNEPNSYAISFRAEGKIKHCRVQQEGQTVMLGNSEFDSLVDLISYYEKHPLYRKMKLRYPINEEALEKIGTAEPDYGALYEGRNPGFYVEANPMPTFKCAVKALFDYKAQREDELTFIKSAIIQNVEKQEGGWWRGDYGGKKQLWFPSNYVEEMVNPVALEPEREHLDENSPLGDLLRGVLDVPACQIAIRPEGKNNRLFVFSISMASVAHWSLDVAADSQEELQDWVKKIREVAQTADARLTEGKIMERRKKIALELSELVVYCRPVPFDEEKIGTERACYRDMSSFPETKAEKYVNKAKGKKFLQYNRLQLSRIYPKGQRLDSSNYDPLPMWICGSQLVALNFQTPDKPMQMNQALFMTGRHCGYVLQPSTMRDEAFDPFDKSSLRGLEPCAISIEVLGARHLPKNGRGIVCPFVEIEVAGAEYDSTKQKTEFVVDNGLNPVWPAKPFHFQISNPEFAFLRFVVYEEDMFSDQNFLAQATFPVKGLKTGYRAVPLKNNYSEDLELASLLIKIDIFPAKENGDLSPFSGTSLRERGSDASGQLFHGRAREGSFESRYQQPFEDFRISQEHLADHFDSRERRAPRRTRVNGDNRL
Description: IP-ONE assay in HEK stable cell line expressing PLCγ1^S345F. Format: cell-based. An excerpt: (§1) For generating HEK cell lines that stably express PLC variants, an in-house Gateway compatible, Lenti viral vector was generated using In-Fusion cloning (Takara Bio) following manufacturer’s protocols. The vector backbone consisted of pLenti PGK Puro DEST (Addgene 19068). A KOZAK sequence, Avi-tag and His-tag (KAH cassette) was inserted between the PGK promoter and the attR1 vector regions. An IRES2 EmGFP cassette was inserted between the attR2 and WPRE regions. Both cassettes were PCR amplified from vector pHR-CMV-TetO2_3C-Avi-His6_IRES-EmGFP (Addgene 113888). Finally, a BirA ORF was cloned in-frame upstream of the EmGFP, which would express as a BirA-EmGFP fusion protein. The resulting Gateway compatible destination vector was used in the LR reaction (Thermo Fisher) with pENTR207 clones containing the PLCγ1^S345F or an activated version of PLCδ1, where the amino acids 445–487 had been deleted (PLCδ1Δ^44), to generate their respective expression clones ready for preparing stable cell lines in HEK.
(§2) Stable cell lines overexpressing PLCγ1^S345F or PLCδ1^Δ44 were prepared as described in [28]. […] Fluorescence-activated cell sorting (FACS) was used to select the top 10% of GFP-expressing cells. […]
(§3) PLC activity in cell lines was measured using the IP-ONE assay according to the manufacturer’s instructions as described in [28]. […]

In a further assay the target is T2, PLCδ1^Δ44 (Homo sapiens, UniProt P51178, DEL445-487).
T2 construct: Avi-tag (N); His-tag (N); expressed in transfected cells
T2 sequence (P51178 with tags, fused parts or gaps DEL445-487): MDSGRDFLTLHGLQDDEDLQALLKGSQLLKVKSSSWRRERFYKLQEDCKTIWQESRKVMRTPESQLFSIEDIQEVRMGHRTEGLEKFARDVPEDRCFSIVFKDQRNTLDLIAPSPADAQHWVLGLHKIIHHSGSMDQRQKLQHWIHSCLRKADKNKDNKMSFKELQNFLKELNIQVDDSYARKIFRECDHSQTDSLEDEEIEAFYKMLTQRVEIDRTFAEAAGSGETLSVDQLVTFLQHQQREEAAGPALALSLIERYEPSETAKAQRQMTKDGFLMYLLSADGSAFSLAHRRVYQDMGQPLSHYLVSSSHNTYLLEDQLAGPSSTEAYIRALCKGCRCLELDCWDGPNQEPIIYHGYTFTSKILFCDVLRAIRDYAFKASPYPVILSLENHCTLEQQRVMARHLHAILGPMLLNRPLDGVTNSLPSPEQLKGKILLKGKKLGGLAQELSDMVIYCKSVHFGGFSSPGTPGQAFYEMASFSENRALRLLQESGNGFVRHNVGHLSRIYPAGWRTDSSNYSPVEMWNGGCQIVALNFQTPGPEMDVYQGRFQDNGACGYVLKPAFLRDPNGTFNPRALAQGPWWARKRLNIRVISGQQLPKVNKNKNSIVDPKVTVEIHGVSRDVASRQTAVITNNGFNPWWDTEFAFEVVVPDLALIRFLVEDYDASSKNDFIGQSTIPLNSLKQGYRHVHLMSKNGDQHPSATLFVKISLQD
The experiment in a line: IP-ONE assay in HEK stable cell line expressing PLCδ1^Δ44. Format: cell-based.
From the text: as §1, §2, §3

Assay [2] concerns the target T3, PLCγ1^S345F (Homo sapiens, UniProt P19174, I813T/S345F).
T3 construct: His-tag (N); Myc-tag (C); made in house; host or cells: Escherichia coli T7 Express lysY/Iq
T3 sequence (P19174 1-1291 isoform P19174-2 S345F/I813T): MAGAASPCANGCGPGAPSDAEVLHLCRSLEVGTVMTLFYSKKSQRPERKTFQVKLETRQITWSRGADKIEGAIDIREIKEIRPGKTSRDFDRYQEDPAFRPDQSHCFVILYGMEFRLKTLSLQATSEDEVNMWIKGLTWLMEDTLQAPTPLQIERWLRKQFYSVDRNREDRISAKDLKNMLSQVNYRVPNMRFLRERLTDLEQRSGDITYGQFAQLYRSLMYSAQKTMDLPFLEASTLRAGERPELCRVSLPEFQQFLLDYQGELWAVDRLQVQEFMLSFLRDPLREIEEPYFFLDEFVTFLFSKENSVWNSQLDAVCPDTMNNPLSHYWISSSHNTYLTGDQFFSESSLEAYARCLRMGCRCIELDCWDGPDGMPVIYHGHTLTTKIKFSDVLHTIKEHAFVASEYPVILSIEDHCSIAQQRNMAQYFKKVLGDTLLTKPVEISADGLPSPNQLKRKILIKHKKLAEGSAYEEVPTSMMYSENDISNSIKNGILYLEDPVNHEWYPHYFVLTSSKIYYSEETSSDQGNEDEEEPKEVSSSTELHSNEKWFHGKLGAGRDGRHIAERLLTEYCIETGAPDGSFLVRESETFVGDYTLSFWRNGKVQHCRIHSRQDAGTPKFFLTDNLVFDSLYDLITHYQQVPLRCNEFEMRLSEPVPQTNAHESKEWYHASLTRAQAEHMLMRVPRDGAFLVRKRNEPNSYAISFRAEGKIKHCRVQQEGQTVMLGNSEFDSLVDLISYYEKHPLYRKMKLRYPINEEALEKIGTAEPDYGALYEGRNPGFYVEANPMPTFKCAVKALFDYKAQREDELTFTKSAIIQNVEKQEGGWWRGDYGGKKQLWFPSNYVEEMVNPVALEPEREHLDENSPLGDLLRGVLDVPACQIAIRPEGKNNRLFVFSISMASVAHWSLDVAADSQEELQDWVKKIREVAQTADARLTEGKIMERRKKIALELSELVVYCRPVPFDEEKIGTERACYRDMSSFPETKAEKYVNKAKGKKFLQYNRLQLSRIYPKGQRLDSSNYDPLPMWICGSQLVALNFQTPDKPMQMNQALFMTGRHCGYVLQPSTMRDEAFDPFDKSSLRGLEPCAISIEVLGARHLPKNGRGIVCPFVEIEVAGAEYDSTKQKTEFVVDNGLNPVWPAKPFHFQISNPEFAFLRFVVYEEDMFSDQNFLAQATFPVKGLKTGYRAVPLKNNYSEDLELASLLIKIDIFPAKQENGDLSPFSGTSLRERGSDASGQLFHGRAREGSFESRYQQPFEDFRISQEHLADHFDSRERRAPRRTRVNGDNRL
Description: Fluorescence polarisation competition with TNP-ATP. Format: binding. As to conditions: fixed TNP-ATP. Here is the method:
Experiments were performed in black small volume 384-well plates (Greiner) on a Pherastar FS microplate reader (BMG Labtech) utilising an FP module with Excitation 485 nm and Emission 520 nm. […] PLCγ1^S345F protein was titrated against the fixed concentration of TNP-ATP and the FP data fit in GraphPad Prism using the One site Total binding model. […] Equal amounts of DMSO only were added in a parallel FP experiment. Generated data was also fit in GraphPad Prism using the One site -Total binding model. Each experiment was performed in triplicate and the data presented as the mean and SD.

For `CC(C)c1nc(CN(C)C(=O)N[C@H](C(=O)N[C@@H](Cc2ccccc2)C[C@H](O)[C@H](Cc2ccccc2)NC(=O)OCc2cncs2)C(C)C)cs1` [ritonavir], in the assay on CD95–PLCγ1 interaction, the “CD95–PLCγ1 interaction” value is reported as “disrupt”. Besides, the “clinical symptoms in a disease mouse model” value with disease mouse model is reported as “alleviating clinical symptoms”.

Consider `CC(=O)OC[C@H]1O[C@@H](n2ncc(=O)[nH]c2=O)[C@H](OC(C)=O)[C@@H]1OC(C)=O` [Azaribine], for which the “inhibition of PLC activity of PLCγ1^S345F in cell-based assay” value against PLCγ1^S345F [1] is on record as “potently inhibited”. At PLCγ1^S345F [1] (PLCγ1 S345F, read-out: IC50, PLC activity (IP1) in stable cell line), the pIC50 was 5.80. At PLCδ1^Δ44, the “effect on PLC activity of PLCδ1 in stable cell line” value is “no effect”. In addition, the “IC50, PLC activity (IP1) in stable cell line” value on PLCδ1^Δ44 (PLCδ1 Δ44) is given as “no inhibition”.

Take `O=P(O)(O)CP(=O)(O)OC[C@H]1O[C@@H](n2cnc3c(NCc4ccccc4)ncnc32)[C@H](O)[C@@H]1O` [PSB 12379]: the “competition with binding of fluorescently labelled ATP analogue (TNP-ATP)” value at PLCγ1^S345F [2] is “competed”.
